Reference: ChEMBL document CHEMBL3132854, “Synthesis and anticancer activity evaluation of resveratrolchalcone conjugates” (2014)

Columns and labels:
MDA-MB-435 = assay: Growth inhibition of human MDA-MB-435 cells assessed as cell growth at 10 uM by sulforhodamine B assay relative to control; values are per cent of control
NCI-H23 = assay: Growth inhibition of human NCI-H23 cells assessed as cell growth at 10 uM by sulforhodamine B assay relative to control; values are per cent of control
SNB-19 = assay: Growth inhibition of human SNB19 cells assessed as cell growth at 10 uM by sulforhodamine B assay relative to control; values are per cent of control
MDA-MB-468 = assay: Growth inhibition of human MDA-MB-468 cells assessed as cell growth at 10 uM by sulforhodamine B assay relative to control; values are per cent of control
SN12C [1] = assay: Growth inhibition of human SN12C cells assessed as cell growth at 10 uM by sulforhodamine B assay relative to control; values are per cent of control
SR = assay: Growth inhibition of human SR cells assessed as cell growth at 10 uM by sulforhodamine B assay relative to control; values are per cent of control
SK-MEL-28 = assay: Growth inhibition of human SK-MEL-28 cells assessed as cell growth at 10 uM by sulforhodamine B assay relative to control; values are per cent of control
PC-3 = assay: Growth inhibition of human PC3 cells assessed as cell growth at 10 uM by sulforhodamine B assay relative to control; values are per cent of control
[2] = Growth inhibition of human SF539 cells assessed as cell growth at 10 uM by sulforhodamine B assay relative to control; values are per cent of control; conditions: SF-539
MDA-MB-231 = assay: Growth inhibition of human MDA-MB-231 cells assessed as cell growth at 10 uM by sulforhodamine B assay relative to control; values are per cent of control
K562 = assay: Growth inhibition of human K562 cells assessed as cell growth at 10 uM by sulforhodamine B assay relative to control; values are per cent of control
[3] = Growth inhibition of human NCI-ADR-RES cells assessed as cell growth at 10 uM by sulforhodamine B assay relative to control; values are per cent of control
[4] = Growth inhibition of human OVCAR4 cells assessed as cell growth at 10 uM by sulforhodamine B assay relative to control; values are per cent of control; conditions: OVCAR-4
SF-295 = assay: Growth inhibition of human SF295 cells assessed as cell growth at 10 uM by sulforhodamine B assay relative to control; values are per cent of control
HCT-116 = assay: Growth inhibition of human HCT116 cells assessed as cell growth at 10 uM by sulforhodamine B assay relative to control; values are per cent of control
OVCAR-8 = assay: Growth inhibition of human OVCAR8 cells assessed as cell growth at 10 uM by sulforhodamine B assay relative to control; values are per cent of control
RPMI-8226 = assay: Growth inhibition of human RPMI8226 cells assessed as cell growth at 10 uM by sulforhodamine B assay relative to control; values are per cent of control
HOP-62 = assay: Growth inhibition of human HOP62 cells assessed as cell growth at 10 uM by sulforhodamine B assay relative to control; values are per cent of control
NCI-H226 = assay: Growth inhibition of human NCI-H226 cells assessed as cell growth at 10 uM by sulforhodamine B assay relative to control; values are per cent of control
NCI-H322M = assay: Growth inhibition of human NCI-H322M cells assessed as cell growth at 10 uM by sulforhodamine B assay relative to control; values are per cent of control
SNB-75 = assay: Growth inhibition of human SNB75 cells assessed as cell growth at 10 uM by sulforhodamine B assay relative to control; values are per cent of control
BT-549 [5] = assay: Growth inhibition of human BT549 cells assessed as cell growth at 10 uM by sulforhodamine B assay relative to control; values are per cent of control
UACC-62 [6] = assay: Growth inhibition of human UACC62 cells assessed as cell growth at 10 uM by sulforhodamine B assay relative to control; values are per cent of control
CAKI-1 = assay: Growth inhibition of human CAKI-1 cells assessed as cell growth at 10 uM by sulforhodamine B assay relative to control; values are per cent of control
SK-MEL-2 = assay: Growth inhibition of human SK-MEL-2 cells assessed as cell growth at 10 uM by sulforhodamine B assay relative to control; values are per cent of control
SW-620 = assay: Growth inhibition of human SW620 cells assessed as cell growth at 10 uM by sulforhodamine B assay relative to control; values are per cent of control
A549 = assay: Cytotoxicity against human A549/ATCC cells by sulforhodamine B assay; format: functional
UACC-62 [7] = assay: Cytotoxicity against human UACC62 cells by sulforhodamine B assay; format: functional
BT-549 [8] = assay: Cytotoxicity against human BT549 cells by sulforhodamine B assay; format: functional
SN12C [9] = assay: Cytotoxicity against human SN12C cells by sulforhodamine B assay; format: functional
HL-60(TB) = assay: Cytotoxicity against human HL-60(TB) cells by sulforhodamine B assay; format: functional
DU-145 = assay: Cytotoxicity against human DU145 cells by sulforhodamine B assay; format: functional
[10] = read-out: LC50 (the source's name)

COc1ccc(/C=C/c2ccc(/C=C/C(=O)c3ccc(Cl)cc3)cc2)cc1 showed a growth, % of control at 10 µM (MDA-MB-435) of 95.3%, a growth, % of control at 10 µM (NCI-H23) of 100% and a growth, % of control at 10 µM (SNB-19) of 97.5%. It also gave a growth, % of control at 10 µM (MDA-MB-468) of 113%, a growth, % of control at 10 µM (SN12C [1]) of 99.8% and a growth, % of control at 10 µM (SR) of 82.4%. For the same compound, the growth, % of control at 10 µM (SK-MEL-28) was 112%, the growth, % of control at 10 µM (PC-3) was 108% and the growth, % of control at 10 µM [2] was 109%. For the same compound, the growth, % of control at 10 µM (MDA-MB-231) was 117%, the growth, % of control at 10 µM (K562) was 87.3% and the growth, % of control at 10 µM [3] was 109%. For the same compound, the growth, % of control at 10 µM [4] was 102%, the growth, % of control at 10 µM (SF-295) was 87% and the growth, % of control at 10 µM (HCT-116) was 93.3%. For the same compound, the growth, % of control at 10 µM (OVCAR-8) was 109%, the growth, % of control at 10 µM (RPMI-8226) was 99.2% and the growth, % of control at 10 µM (HOP-62) was 105%. The growth, % of control at 10 µM (NCI-H226) was 112%, the growth, % of control at 10 µM (NCI-H322M) was 97% and the growth, % of control at 10 µM (SNB-75) was 100%. For the same compound, the growth, % of control at 10 µM (BT-549 [5]) was 93.4%, the growth, % of control at 10 µM (UACC-62 [6]) was 105% and the growth, % of control at 10 µM (CAKI-1) was 92.4%. For the same compound, the growth, % of control at 10 µM (SK-MEL-2) was 101% and the growth, % of control at 10 µM (SW-620) was 102%.
Compound COc1ccc(C(=O)/C=C/c2ccc(/C=C/c3ccc(F)cc3)cc2)cc1 has a growth, % of control at 10 µM (MDA-MB-435) of 98.9%, a growth, % of control at 10 µM (NCI-H23) of 98.1% and a growth, % of control at 10 µM (SNB-19) of 100%. It also gave a growth, % of control at 10 µM (MDA-MB-468) of 112%, a growth, % of control at 10 µM (SN12C [1]) of 102% and a growth, % of control at 10 µM (SR) of 91%. It also gave a growth, % of control at 10 µM (SK-MEL-28) of 112%, a growth, % of control at 10 µM (PC-3) of 106% and a growth, % of control at 10 µM [2] of 108%. For the same compound, the growth, % of control at 10 µM (MDA-MB-231) was 116%, the growth, % of control at 10 µM (K562) was 86.3% and the growth, % of control at 10 µM [3] was 96.1%. For the same compound, the growth, % of control at 10 µM [4] was 115%, the growth, % of control at 10 µM (SF-295) was 94.9% and the growth, % of control at 10 µM (HCT-116) was 95.8%. It also gave a growth, % of control at 10 µM (OVCAR-8) of 106%, a growth, % of control at 10 µM (RPMI-8226) of 104% and a growth, % of control at 10 µM (HOP-62) of 120%. The growth, % of control at 10 µM (NCI-H226) was 109%, the growth, % of control at 10 µM (NCI-H322M) was 99.6% and the growth, % of control at 10 µM (SNB-75) was 104%. The growth, % of control at 10 µM (BT-549 [5]) was 101%, the growth, % of control at 10 µM (UACC-62 [6]) was 104% and the growth, % of control at 10 µM (CAKI-1) was 91.2%. The growth, % of control at 10 µM (SK-MEL-2) was 96.2% and the growth, % of control at 10 µM (SW-620) was 104%.
COc1ccc(C(=O)/C=C/c2ccc(/C=C/c3ccc(Cl)cc3)cc2)cc1 showed a growth, % of control at 10 µM (MDA-MB-435) of 103%, a growth, % of control at 10 µM (NCI-H23) of 103% and a growth, % of control at 10 µM (SNB-19) of 97.6%. The growth, % of control at 10 µM (MDA-MB-468) was 110%, the growth, % of control at 10 µM (SN12C [1]) was 97.4% and the growth, % of control at 10 µM (SR) was 85.6%. It also gave a growth, % of control at 10 µM (SK-MEL-28) of 104%, a growth, % of control at 10 µM (PC-3) of 98.7% and a growth, % of control at 10 µM [2] of 99.9%. It also gave a growth, % of control at 10 µM (MDA-MB-231) of 103%, a growth, % of control at 10 µM (K562) of 87.8% and a growth, % of control at 10 µM [3] of 111%. For the same compound, the growth, % of control at 10 µM [4] was 107%, the growth, % of control at 10 µM (SF-295) was 96.5% and the growth, % of control at 10 µM (HCT-116) was 97.5%. It also gave a growth, % of control at 10 µM (OVCAR-8) of 104%, a growth, % of control at 10 µM (RPMI-8226) of 102% and a growth, % of control at 10 µM (HOP-62) of 101%. The growth, % of control at 10 µM (NCI-H226) was 101%, the growth, % of control at 10 µM (NCI-H322M) was 76.6% and the growth, % of control at 10 µM (SNB-75) was 97.2%. It also gave a growth, % of control at 10 µM (BT-549 [5]) of 103%, a growth, % of control at 10 µM (UACC-62 [6]) of 92.7% and a growth, % of control at 10 µM (CAKI-1) of 93.9%. It also gave a growth, % of control at 10 µM (SK-MEL-2) of 106% and a growth, % of control at 10 µM (SW-620) of 99.8%.
Compound COc1ccc(C(=O)/C=C/c2ccc(/C=C/c3cc(OC)c(OC)c(OC)c3)cc2)cc1 has a growth, % of control at 10 µM (MDA-MB-435) of 41%, a growth, % of control at 10 µM (NCI-H23) of 43.5% and a growth, % of control at 10 µM (SNB-19) of 74.4%. The growth, % of control at 10 µM (MDA-MB-468) was 51.9%, the growth, % of control at 10 µM (SN12C [1]) was 56.7% and the growth, % of control at 10 µM (SR) was 9.61%. The growth, % of control at 10 µM (SK-MEL-28) was 84.7%, the growth, % of control at 10 µM (PC-3) was 52.2% and the growth, % of control at 10 µM [2] was 86.3%. It also gave a growth, % of control at 10 µM (MDA-MB-231) of 76.8%, a growth, % of control at 10 µM (K562) of 14.4% and a growth, % of control at 10 µM [3] of 50%. The GI50 (A549) was 4.67 µM, the TGI (A549) was 80.9 µM and the CC50 (A549; [10]) was over 100 µM. The GI50 (UACC-62 [7]) was 7.13 µM, the TGI (UACC-62 [7]) was over 100 µM and the CC50 (UACC-62 [7]; [10]) was over 100 µM. For the same compound, the growth, % of control at 10 µM [4] was 65.7%, the growth, % of control at 10 µM (SF-295) was 57.9% and the GI50 (BT-549 [8]) was 3.36 µM. The TGI (BT-549 [8]) was 16.8 µM, the CC50 (BT-549 [8]; [10]) was over 100 µM and the GI50 (SN12C [9]) was 9.61 µM. For the same compound, the TGI (SN12C [9]) was over 100 µM, the CC50 (SN12C [9]; [10]) was over 100 µM and the growth, % of control at 10 µM (HCT-116) was 17.5%. The growth, % of control at 10 µM (OVCAR-8) was 28.4%, the growth, % of control at 10 µM (RPMI-8226) was -0.63% and the growth, % of control at 10 µM (HOP-62) was 71%. The growth, % of control at 10 µM (NCI-H226) was 72.4%, the growth, % of control at 10 µM (NCI-H322M) was 64.8% and the growth, % of control at 10 µM (SNB-75) was 59.8%. The GI50 (HL-60(TB)) was 4.49 µM, the TGI (HL-60(TB)) was over 100 µM and the CC50 (HL-60(TB); [10]) was over 100 µM. It also gave a growth, % of control at 10 µM (BT-549 [5]) of 41.6%, a growth, % of control at 10 µM (UACC-62 [6]) of 53.6% and a growth, % of control at 10 µM (CAKI-1) of 74.4%. For the same compound, the growth, % of control at 10 µM (SK-MEL-2) was 65.1%, the GI50 (DU-145) was 10.2 µM and the TGI (DU-145) was over 100 µM. The CC50 (DU-145; [10]) was over 100 µM and the growth, % of control at 10 µM (SW-620) was 39.3%.
